Assay results taken from patent US12435109B2, “Compositions and methods for dissolving protein aggregates” (REJUKON BIOPHARM INC., priority 2020, dated 2025).
“Also recorded” adds a separate entry of the source.

Assays:
[1] = test system: FUS protein aggregates in SH-SY5Y cells; assay: FUS protein aggregates in heat-shocked SH-SY5Y cell model overexpressing FUS; type: cell-based; details: heat shock 42° C. 1 hour, 1 μg polypeptide-plasmid
Source text: Polypeptides RJK001˜RJK004 and control polypeptides RJK005˜RJK007 were transfected into the SH-SY5Y cell model overexpressing FUS-mCherry after heat stimulation. The staining of G3BP1 represents the stress granule.
Polypeptides RJG001˜RJG003 and control polypeptide RJK005 were transfected into the SH-SY5Y cell model overexpressing FUS-mCherry after heat stimulation. The staining of G3BP1 represents the stress granule.
(§1) An SH-SY5Y cell model that overexpresses FUS-GFP protein or TDP-43-mCherry protein was generated using the following steps:
SH-SY5Y cells were cultured in DMEM/F12 medium containing 10% fetal bovine serum in a 37° C., 5% carbon dioxide incubator. […]
(§2) The SH-SY5Y cell model (initially cultured at 37° C.) transfected with the FUS plasmid according to Example 2 was placed in a 42° C. incubator for 1 hour for heat shock treatment to cause FUS protein aggregation. […] Laser confocal fluorescence microscope was used to observe the accumulation of overexpressed FUS in SH-SY5Y cells.
as §2

[2] = test system: TIA1 protein aggregates in SH-SY5Y cells; assay: TIA1 protein aggregates in heat-shocked SH-SY5Y cell model; type: cell-based; details: heat shock 42° C. 1 hour, 1 μg polypeptide-plasmid
[3] = test system: TDP-43 protein aggregates in SH-SY5Y cells; assay: TDP-43 protein aggregates in heat-shocked SH-SY5Y cell model overexpressing TDP-43-mCherry; type: cell-based; details: SH-SY5Y overexpressing TDP-43-mCherry, heat shock 42° C. 1 hour, 1 μg polypeptide-plasmid
Experimental: Polypeptides RJK001˜RJK004 and control polypeptides RJK005˜RJK007 were transfected into the SH-SY5Y cell model overexpressing TDP-43-mCherry after heat stimulation. The staining of G3BP1 represents the stress granule.
as §1
SH-SY5Y cells were cultured in DMEM/F12 medium containing 10% fetal bovine serum in a 37° C., 5% carbon dioxide incubator. After the cell confluence reaches 80%, the culture medium was removed using a vacuum pump or pipette. The cells were washed once with PBS. Add trypsin-EDTA (0.05%) to the culture dish and incubate it in a 37° C. cell incubator for 1 min. Add twice the volume of culture medium to stop the digestion, and gently blow the cells to suspend the cells into a uniform cell suspension. Add the cell suspension to a 15 mL centrifuge tube and centrifuge at 1200 rpm for 3 minutes. Discard the supernatant and resuspend the cells in fresh complete medium. […]
The SH-SY5Y cell model (initially cultured at 37° C.) transfected with the TDP-43 plasmid prepared according to Example 2 was placed in a 42° C. incubator for 1 hour for heat shock treatment to cause the TDP43 protein to separate and aggregate. […] Laser confocal fluorescence microscopy was used to observe the accumulation of TDP-43 and cell-endogenous G3BP1 in SH-SY5Y cells.

[4] = test system: FUS-GFP protein aggregates in motor neurons; assay: FUS-GFP protein aggregates in primary cultured motor neurons, live imaging; type: cell-based, rat; details: 20 μM polypeptide
Experimental: Real-time imaging technology using fluorescence microscope was used to observe the cell culture. […] The left 2-3 images are the microscopic images when the polypeptides were just added (0 min); the middle images are the microscopic images at different time points (30 minutes, 60 minutes, 90 minutes) after the polypeptides were added, and the right image is the microscopic image at 120 minutes after adding the polypeptides.
(§3) An ALS rat motor neuron model that can be used to overexpress FUS-GFP protein and SOD1 (G93A) protein was generated using the following steps.
After the E13.5 rat is anesthetized, open the abdominal cavity and take out the uterus to a 10 cm dish. Add HBSS, use scissors and tweezers to remove the embryos to a new 10 cm dish. Separate the head and trunk of the embryo and move to anatomical spinal cord under a stereoscope. With the torso facing up, fix the hind limbs with a microscopic forceps. After finding the translucent spine, use another microscopic forceps to lift the skin forward and upward, and then open the connection on the side of the spine. Pick up the spine from the tail. Fix the head of the spine with the back side facing up and pick up the membrane. Turn the abdomen up, peel off the membrane, most of the DRG was removed. Remove the DRG attached to the spinal cord and move to a new 6 cm dish. Use micro tweezers to move the spinal cord to a 5 ml centrifuge tube, use tweezers to crush it to a size of 1 mm, add 1× Trypsin (diluted by HBSS), and place in a 37° C. incubator for 25-30 minutes. Use a 1 ml pipette tip to suck the tissue mass into the preheated 3 ml MN Medium and blow away the tissue mass. Pass the 40 um filer, transfer the cells to a 5 ml centrifuge tube, centrifuge at 400 g, 5 min to remove the supernatant. Resuspend the cells in 3 mlMN medium, take 10 ul and count. […]
A rat motor neuron model of ALS pathogenic FUS protein aggregates was prepared according to Example 4. […] The dissolution effect of the polypeptides on proteins aggregates in motor neurons was recorded with live images using laser confocal fluorescence microscope. […]

[5] = test system: SOD1(G93A)-GFP protein aggregates in motor neurons; assay: SOD1(G93A) protein aggregates in primary cultured motor neurons, live imaging; type: cell-based, rat; details: 20 μM polypeptide
Experimental: Real-time imaging technology using fluorescence microscope was used to observe the cell culture. The left panel is the polypeptide RJK001; the right panel is the control polypeptide RJK005. […] The right image in each panel is the microscopic image at 24 hours after adding the polypeptides.
as §3
After the E13.5 rat is anesthetized, open the abdominal cavity and take out the uterus to a 10 cm dish. Add HBSS, use scissors and tweezers to remove the embryos to a new 10 cm dish. Separate the head and trunk of the embryo and move to anatomical spinal cord under a stereoscope. With the torso facing up, fix the hind limbs with a microscopic forceps. After finding the translucent spine, use another microscopic forceps to lift the skin forward and upward, and then open the connection on the side of the spine. Pick up the spine from the tail. Fix the head of the spine with the back side facing up and pick up the membrane. Turn the abdomen up, peel off the membrane, most of the DRG was removed. […]
A rat motor neuron model of ALS pathogenic SOD1 (G93A) protein aggregates was prepared according to Example 4. […] The dissolution effect of the polypeptides on proteins aggregates in motor neurons was recorded with live images using laser confocal fluorescence microscope. […]

TEPQEESEEEVEEPEERQQTPEVVPDDSGTFYDQTVSNDLE [RJK001, polypeptide capable of dissolving protein aggregates]
dissolution of FUS protein aggregates / number of phase-separated droplets of FUS protein in SH-SY5Y cells versus control [1]: significantly less; also recorded: significant dissolving effect
dissolution of TIA1 protein aggregates / number of phase-separated droplets of TIA1 protein in SH-SY5Y cells versus control [2]: significantly less; also recorded: significant dissolving effect
dissolution of TDP-43 protein aggregates / number of phase-separated droplets of TDP-43 protein in SH-SY5Y cells versus control [3]: significantly less; also recorded: significant dissolving effect
aggregation of ALS pathogenic FUS protein in motor neurons at 90 minutes after adding polypeptide ([4]; 90 minutes): began to dissolve significantly
aggregation of ALS pathogenic FUS protein in motor neurons after 120 minutes ([4]; 120 minutes): essentially dissolved
dissolving effect on FUS protein aggregates in motor neurons ([4]; motor neurons, day 10 in vitro, up to 120 minutes): significant dissolving effect; also recorded: enhanced the dissolution
aggregation of SOD1 (G93A) protein in motor neurons at 24 hours after adding polypeptide [5]: dissolved significantly
dissolving effect on SOD1 (G93A) protein aggregates in motor neurons ([5]; motor neurons, day 10 in vitro, 24 hours): significant dissolving effect; also recorded: enhanced the dissolution
